# In patent US20170369928A1, “METHOD FOR EVALUATING DNA DAMAGE FROM ANALYTE” (SOGANG UNIVERSITY RESEARCH FOUNDATION, priority 2016, published 2017):
# Tests used:
# Escherichia coli [1] = details: 30 minutes incubation in ethanol
# Escherichia coli [2] = test: single molecule DNA damage analysis (visualization of damaged lesions in genomic DNA of agarose-embedded cells); type: cell-based, Escherichia coli K-12 MG1655
# Description: Escherichia coli K-12 MG1655 cells were grown in 5 mL LB broths in a shaking incubator (220 rpm) at 37° C. for six hours. Bacterial cells were harvested by centrifugation (10,000×g, 10 min) and washed twice with 0.85% NaCl solution and re-suspended in the same solution. The cell-suspension was then diluted such that OD600 was approximately between 0.5 and 1 and used for subsequent reactions.
# Bacterial suspension (OD600=0.5) was mixed with 2% LGT agarose solution and then dispensed as 20 μL droplets on a surface and solidified in the refrigerator (4° C.) for 10 minutes. […] After incubation, all these plugs were washed in 0.85% NaCl solution for half an hour.
# After alcohol treatment, bacteria embedded agarose plugs were subjected to lysis with proteinase K solution (50 units in 500 μL, Tris 10 mM and EDTA 1 mM, pH 8.0 (1×TE)) at 42° C. for 150 min. The plugs were then washed in 1 mL 1×TE overnight. For removing oxidized base adducts, agarose plugs were incubated with a mixture of 10 units Fpg, 10 units Nfo, and 20 units Nei in NEB buffer2 (50 mM NaCl, 10 mM Tris-HCl, 10 mM MgCl2, 1 mM DTT, pH 7.9) at 37° C. for one hour. After enzyme treatment, the plugs were washed twice with 1 mL 1×TE buffer for half-an-hour. The plugs were then incubated with 5 units DNA Polymerase I, 1 mM AlexaFluor-647 labeled dUTP and dNTP mix (1 mM dATP, 1 mM dGTP, 100 μM dCTP, 100 μM dTTP) in the polymerase reaction buffer (50 mM Tris-HCl, 1 mM DTT, 10 mM MgCl2, pH 7.5) at 37° C. for one hour to label gaps or nicks. […] After nick translation, the plugs were washed three times in 1 mL 1×TE buffer for one hour. Then agarose plugs were melted in 400 μL 1×TE buffer at 65° C. for 15 min and stained with 1 μM YOYO-1.
# A PDMS device was mounted on the positively charged surface. Then, the solution of DNA molecules melted from low gelling temperature agarose plug was loaded onto the entrance of the microfluidic channels. While the solution moved through the microchannels by capillary action, DNA molecules were elongated and deposited on the positively charged surface.
structure (smiles),measurement,setting,value
"CCO [ethanol, Ethanol]",ethanol concentration above which bacterial cells could not survive,Escherichia coli [1],above 17%
same,number of DNA lesions corresponding to 17% ethanol,"Escherichia coli [2]; 17% ethanol, 30 minutes, glycosylase mix",16.4 lesions/genome
same,DNA length per one lesion at 17% ethanol,"Escherichia coli [2]; 17% ethanol, 30 minutes, glycosylase mix, one lesion per ~300 kb",~300 kb
same,increase in number of DNA lesions with every 1% increase in ethanol concentration,"Escherichia coli [2]; E. coli embedded agarose plug, 30 minutes incubation, ethanol 5%-40%, glycosylase mix (Fpg, Nfo, Nei), linear fit r^2=0.98",0.88 lesions/genome
same,"labels per genome, ethanol incubation without glycosylase treatment","Escherichia coli [2]; without glycosylase treatment (triangles in FIG. 2A), 30 minutes incubation",1.1-1.4 labels per genome
